Reference: ChEMBL document CHEMBL1212804, “Comparative study of the mutant prevention concentrations of moxifloxacin, levofloxacin, and gemifloxacin against pneumococci” (2010)
≈ marks a conversion by molar mass, not a printed value.

Tests used:
Assay type in all cases: functional
Streptococcus pneumoniae [1] = assay: Antibacterial activity against Streptococcus pneumoniae 1058 assessed as mutant prevention concentration by standard agar dilution method
Streptococcus pneumoniae [2] = assay: Antibacterial activity against Streptococcus pneumoniae 1135 assessed as mutant prevention concentration by standard agar dilution method
Streptococcus pneumoniae [3] = assay: Antibacterial activity against Streptococcus pneumoniae 1058 by standard agar dilution method
Streptococcus pneumoniae [4] = assay: Antibacterial activity against Streptococcus pneumoniae 1149 assessed as mutant prevention concentration by standard agar dilution method
Streptococcus pneumoniae [5] = assay: Antibacterial activity against Streptococcus pneumoniae 1151 assessed as mutant prevention concentration by standard agar dilution method
Streptococcus pneumoniae [6] = assay: Antibacterial activity against Streptococcus pneumoniae 3321 assessed as mutant prevention concentration by standard agar dilution method
Streptococcus pneumoniae [7] = assay: Antibacterial activity against Streptococcus pneumoniae 3321 by standard agar dilution method
Streptococcus pneumoniae [8] = assay: Antibacterial activity against Streptococcus pneumoniae 1149 by standard agar dilution method
Streptococcus pneumoniae [9] = assay: Antibacterial activity against Streptococcus pneumoniae ATCC 49619
Streptococcus pneumoniae [10] = assay: Antibacterial activity against Streptococcus pneumoniae 1065 assessed as mutant prevention concentration by standard agar dilution method
Streptococcus pneumoniae [11] = assay: Antibacterial activity against Streptococcus pneumoniae 1065 by standard agar dilution method
Streptococcus pneumoniae [12] = assay: Antibacterial activity against Streptococcus pneumoniae 1135 by standard agar dilution method
Streptococcus pneumoniae [13] = assay: Antibacterial activity against Streptococcus pneumoniae ATCC 49619 assessed as 50% mutant prevention concentration
Streptococcus pneumoniae [14] = assay: Antibacterial activity against Streptococcus pneumoniae ATCC 49619 assessed as 90% mutant prevention concentration
Streptococcus pneumoniae [15] = assay: Antibacterial activity against Streptococcus pneumoniae 1151 by standard agar dilution method
Streptococcus pneumoniae [16] = assay: Ratio of 50% mutant prevention concentration to MIC50 in Streptococcus pneumoniae ATCC 49619
Streptococcus pneumoniae [17] = assay: Antibacterial activity against Streptococcus pneumoniae 1072 by standard agar dilution method
Streptococcus pneumoniae [18] = assay: Antibacterial activity against Streptococcus pneumoniae 1072 assessed as mutant prevention concentration by standard agar dilution method
Streptococcus pneumoniae [19] = assay: Ratio of 90% mutant prevention concentration to MIC90 in Streptococcus pneumoniae ATCC 49619
[20] = Ratio of AUC to MIC in Streptococcus pneumoniae ATCC 49619

| SMILES | Activity (Streptococcus pneumoniae [1]) | Activity (Streptococcus pneumoniae [2]) | MIC (Streptococcus pneumoniae [3]) | Activity (Streptococcus pneumoniae [4]) | Activity (Streptococcus pneumoniae [5]) | Activity (Streptococcus pneumoniae [6]) | MIC (Streptococcus pneumoniae [7]) | MIC (Streptococcus pneumoniae [8]) | MIC50 (Streptococcus pneumoniae [9]) | MIC90 (Streptococcus pneumoniae [9]) | Activity (Streptococcus pneumoniae [10]) | MIC (Streptococcus pneumoniae [11]) | MIC (Streptococcus pneumoniae [12]) | Activity (Streptococcus pneumoniae [13]) | Activity (Streptococcus pneumoniae [14]) | MIC (Streptococcus pneumoniae [15]) | Ratio (Streptococcus pneumoniae [16]) | MIC (Streptococcus pneumoniae [17]) | Activity (Streptococcus pneumoniae [18]) | Ratio (Streptococcus pneumoniae [19]) | further results |
| --- | --- | --- | --- | --- | --- | --- | --- | --- | --- | --- | --- | --- | --- | --- | --- | --- | --- | --- | --- | --- | --- |
| CO/N=C1\CN(c2nc3c(cc2F)c(=O)c(C(=O)O)cn3C2CC2)CC1CN (configuration not stated) [GEMIFLOXACIN] | 1 µg/mL | 4 µg/mL | 0.125 µg/mL (≈ 0.321 µM) | >8 µg/mL | 8 µg/mL | 2 µg/mL | 0.125 µg/mL (≈ 0.321 µM) | 0.5 µg/mL (≈ 1.28 µM) | 0.125 µg/mL (≈ 0.321 µM) | 1 µg/mL (≈ 2.57 µM) | 4 µg/mL | 0.125 µg/mL (≈ 0.321 µM) | 0.5 µg/mL (≈ 1.28 µM) | 0.5 µg/mL | 4 µg/mL | 1 µg/mL (≈ 2.57 µM) | 4 | 1 µg/mL (≈ 2.57 µM) | 8 µg/mL | 4 | – |
| COc1c(N2C[C@@H]3CCCN[C@@H]3C2)c(F)cc2c(=O)c(C(=O)O)cn(C3CC3)c12 [MOXIFLOXACIN] | >4 µg/mL | 32 µg/mL | 0.5 µg/mL (≈ 1.25 µM) | >8 µg/mL | >8 µg/mL | >8 µg/mL | 0.5 µg/mL (≈ 1.25 µM) | 0.5 µg/mL (≈ 1.25 µM) | 0.5 µg/mL (≈ 1.25 µM) | 4 µg/mL (≈ 9.96 µM) | >8 µg/mL | 0.5 µg/mL (≈ 1.25 µM) | 2 µg/mL (≈ 4.98 µM) | 1 µg/mL | 16 µg/mL | 1 µg/mL (≈ 2.49 µM) | 2 | 8 µg/mL (≈ 19.9 µM) | 64 µg/mL | 4 | – |
| C[C@H]1COc2c(N3CCN(C)CC3)c(F)cc3c(=O)c(C(=O)O)cn1c23.C[C@H]1COc2c(N3CCN(C)CC3)c(F)cc3c(=O)c(C(=O)O)cn1c23.O [LEVOFLOXACIN] | 64 µg/mL | 128 µg/mL | – | >64 µg/mL | 32 µg/mL | 32 µg/mL | – | – | 2 µg/mL | 32 µg/mL | 32 µg/mL | – | – | 4 µg/mL | 64 µg/mL | – | – | – | 256 µg/mL | – | – |
| O=C(O)c1cn(C2CC2)c2cc(N3CCNCC3)c(F)cc2c1=O | – | – | – | – | – | – | – | – | – | – | – | – | – | – | – | – | – | – | – | – | RatioAUC/MIC [20]: 30 |
